# Results reported in US20080220056A1, “Treatment for liver disease” (UNIVERSITY OF SOUTHAMPTON, priority 2002, published 2008).
# Columns and labels:
# [1] = tested on: caspase 3 activity in rat hepatic stellate cells; experiment: Caspase 3 (Ac-DEVD-pNA cleavage) activity in rat hepatic stellate cells; type: cell-based; details: 200 μmol/L chlorpromazine, three hours
# Procedure: Hepatic stellate cells cultured in 100 mm diameter dishes (Greiner, Frickenhausen, Germany) were harvested and pelleted by centrifugation. The medium supernatant was discarded and the cell pellet was washed in 1 mL of ice-cooled phosphate buffered saline (PBS). Caspase 3 (DEVDase) activity was determined using a colorimetric CaspACE kit (Promega, Southampton, England) using the manufacturer's instructions.
# Caspase 3 (Ac-DEVD-pNA cleavage) activity was then examined in control and gliotoxin-treated hepatic stellate cells. Culture activated rat hepatic stellate cells (14 days) in 100 mm diameter plates were treated with 0.05% (vol/vol) DMSO, 1.5 μmol/L gliotoxin, 20 μmol/L Z-VAD-FMK or 200 μmol/L chlorpromazine for three hours. The cells were then harvested for examination of caspase 3 activity as outlined in the materials and methods sections.
# [2] = tested on: rat hepatic stellate cells; experiment: Trypan blue exclusion of treated rat hepatic stellate cells; type: cell-based; details: rat HSC; 1.5 μmol/L gliotoxin or 200 μmol/L chlorpromazine
# rat hepatocytes [3] = experiment: Rat hepatocyte viability by attachment and trypan blue exclusion; type: cell-based; details: 200 μmol/L, four hours
# Procedure: Rat hepatocytes were isolated by collagenase perfusion essentially as previously described. (Harvey et al., Biochemical J., (1998) 331:273-281). Hepatocytes were cultured as outlined for hepatic stellate cells except that they were initially seeded onto collagen coated plates in William's medium E supplemented with 10% fetal calf serum and 1 μg/mL insulin for the first 2 hours.
# Cells were treated with gliotoxin dissolved in DMSO vehicle (added to medium from a 2000-fold molar concentrated stock). Control cells received DMSO vehicle only (i.e., 0.05% vol/vol). All other additions to culture medium were made from concentrated stocks dissolved in DMSO or by direct addition to culture medium. Protein contents of wells were determined using the Lowry assay (Lowry et al., J. Biol. Chem., (1951)193: 265-275).
# The effect of various compounds on cell viability and attachment was determined. Viability of rat hepatocytes as judged by attachment and 0.1% (wt/vol) trypan blue exclusion after four hours treatment with: […]
# rat hepatocytes [4] = experiment: DNA laddering in rat hepatocytes; type: cell-based; details: four hours; 50 μmol/L gliotoxin, 200 μmol/L chlorpromazine, 200 μmol/L methapyrilene, 10 ng/mL TNF-α with cycloheximide
# Procedure: Hepatic stellate cells cultured in 35-mm diameter dishes (Greiner) were harvested, pelleted by centrifugation and DNA fragmentation determined as outlined elsewhere (Elsharkawy et al., Hepatology (1999) 30:761-769). Propidium Iodide Flow-Activated Cell Sorting Analysis Detached cells were pelleted by centrifugation, washed in PBS, and resuspended in HYPO buffer (0.1% wt/vol) Na3Citrate and 0.1% (wt/vol) Triton™ X-100 containing […] propidium iodide and incubated for 1 hour. The cells were then analyzed by fluorescence-activated cell sorter (FACS) with a Becton Dickinson (San Jose, Calif.) FACScan instrument using a 488 nm excitation wavelength with a band pass filter set at 530 nm. Attached cells were scraped in HYPO buffer after washing cells with PBS.
# DNA laddering was also used to compare the effect of gliotoxin, chlorpromazine, methapyrilene and also the combination of TNF-α with cycloheximide on hepatocytes and hepatic stellate cells.
# [5] = tested on: rat hepatic stellate cells; experiment: Hepatic stellate cell apoptosis by acridine orange staining and counting (cycloheximide or serum deprivation), rat cells; type: cell-based; details: rat HSC; protein at 142.5 ng/ml
# Procedure: (§1) Human hepatic stellate cells were extracted from the margins of normal human liver resected for colonic metastatic disease as previously described (Iredale et al., Clin. Sci., (1995) 89: 75-81). Rat hepatic stellate cells were extracted from normal rat liver by Pronase and collagenase digestion and purified by centrifugal elutriation as described (Arthur et al., J. Clin. Invest., (1989) 84:1076-1085). Extracted hepatic stellate cells were cultured on plastic until they were activated to a myofibroblastic phenotype after 7 to 10 days. Human and rat hepatic stellate cells were used for experiments after activation in primary culture or before fourth passage. Cells were cultured in Dulbecco's modified Eagle's medium in the presence of 16% fetal calf serum and antibiotics.
# (§2) Apoptosis of hepatic stellate cells was induced by absolute serum deprivation, cycloheximide treatment (Issa et al., Gut (2001) 48: S48-S57), or exposure to nerve growth factor as previously described (Trim et al., Am. J. Pathol., (2000) 156, 1235-1243). Hepatic stellate cells were cultured in 24-well tissue culture plates. Rat and human hepatic stellate cells were exposed to proapoptotic stimuli with and without recombinant TIMP-1 (Biogenesis, Poole, UK) and other manipulations as detailed below. Following a 4 hour incubation at 37° C., nuclear morphology was assessed by adding acridine orange to each well (final concentration 1 μg/ml) and observing the cells under blue fluorescence. The total number of apoptotic bodies was counted, and any apoptotic bodies floating in the supernatant were included by racking up the objective lens. The total number of cells per field was counted, and an apoptotic index was calculated. Each condition was performed in duplicate, and three high power fields were counted for each well. […] To examine for autocrine effects, hepatic stellate cells were incubated for 18 hours with azide-free polyclonal neutralizing antibodies to TIMP-1 and a nonimmune IgG control (Santa Cruz Biotechnology, Inc., Santa Cruz, Calif.), and responses were assessed by acridine orange staining and counting.
# Apoptosis was assessed by acridine orange staining. […] A normal cell lies adjacent to the apoptotic body. This technique was used to determine the percentage of apoptotic hepatic stellate cells following exposure to cyclohexamide in the presence or absence of TIMP-1. Hepatic stellate cells were exposed to 50 μM cyclohexamide and 0, 1, 10, 100 or 200 ng/ml of TIMP-1. Cells treated with serum alone were used as controls. […] Bovine serum albumin, used as a carrier for the TIMP-1 had no antiapoptotic effect.
# [6] = tested on: human hepatic stellate cells; experiment: Hepatic stellate cell apoptosis by acridine orange staining and counting (cycloheximide or serum deprivation), human cells; type: cell-based; details: human HSC; protein at 142.5 ng/ml
# Procedure: as §1
# as §2, with “Rat and human hepatic stellate cells were exposed to proapoptotic stimuli with and without recombinant TIMP-1 (Biogenesis, Poole, UK) and other manipulations as detailed below.” left out
# Apoptosis was assessed by acridine orange staining. […]
# [7] = tested on: caspase-3 activity in hepatic stellate cells; experiment: Caspase-3 activity in cycloheximide-treated hepatic stellate cells; type: cell-based; details: wild type TIMP-1 or T2G mutant N-TIMP-1
# Procedure: Apoptosis was quantified by a colorimetric assay for caspase-3 activity (Promega) according to the manufacturer's instructions.
# Caspase-3 is a central caspase in the proapoptotic cascade (Hengartner, Nature (2000) 407, 770-776) and can be used as an alternative assay to assess apoptosis. Hepatic stellate cells were cultured in 50 μM cycloheximide with TIMP-1 at a concentration of 0, 1, 10, or 100 ng/ml. Controls where cells were incubated with either the caspase 3 inhibitor benzyloxycarbonyl-Val-Ala-Asp-fluoromethylketone or serum alone were also performed. Data are expressed as mean ±S.E. and are presented as percentage of control given the arbitrary value of 100%. * indicates p<0.001; n=3. […] Although the mean caspase-3 activity of the cells treated with 10 ng/ml TIMP-1 was slightly lower than that treated with 100 ng/ml of TIMP-1, this was not statistically significant (p=0.67 by Student's t test).
# [8] = tested on: 10 day culture activated hepatic stellate cells; experiment: Nuclear morphology (acridine orange) of hepatic stellate cells treated with 5-HT2 antagonists; type: cell-based, rat
# Procedure: (§3) The mRNA for the 5-HT2B receptor was only found in 10 day culture activated hepatic stellate cells, whereas the mRNA for the 5-HT2C receptor was absent from all cells investigated. […] 10 day culture activated hepatic stellate cells were treated with a range of 5-HT2 antagonists (including Spiperone HCl, Methiothepin Maleate and LY 53,857) at various concentrations and time periods and nuclear morphology was assessed using Acridine Orange (1 μg/ml) staining as described in Examples 1 and 2. […] Caspase 3 activity (as defined by pNA liberation) was subsequently determined at the predetermined optimal times and doses as described in Examples 1 and 2. 10 day culture activated hepatic stellate cells were also treated with the antagonist together with the 5-HT2 agonist serotonin (5-hydroxytryptamine 100 µM) to see if any modification of the caspase 3 specific activity could be achieved by direct receptor binding site competition.
# [9] = tested on: caspase 3 activity in 10 day culture activated hepatic stellate cells; experiment: Caspase 3 activity (pNA liberation) of hepatic stellate cells treated with 5-HT2 antagonists; type: cell-based, rat; details: for effect of serotonin on the specific caspase 3 activity: LY 53,857 100 μM 24 hours, Methiothepin maleate 10 μM 3 hours, with serotonin (100 M [sic])
# Procedure: as §3
molecule,measurement,setting,value
CN(C)CCCN1c2ccccc2Sc2ccc(Cl)cc21 [chlorpromazine],increase in caspase 3 activity,[1],not seen
same,0.1% (wt/vol) trypan blue exclusion (membrane integrity),[2],unable to exclude 0.1% (wt/vol) trypan blue
same,"hepatocytes that do not exclude trypan blue, compared with 50 μmol/L gliotoxin",rat hepatocytes [3],a level similar
same,cleavage of hepatocyte DNA to a nucleosomal ladder,rat hepatocytes [4],only hepatocytes treated with TNF-α and cycloheximide cleaved their DNA to a nucleosomal ladder
wild type N-TIMP-1: wild type (active) TIMP-1 protein compared with the T2G mutant,apoptosis induced by cycloheximide (acridine orange),[5],significantly inhibited apoptosis
same,apoptosis induced by cycloheximide (acridine orange),[6],significantly inhibited apoptosis
same,caspase-3 activity in cycloheximide-treated hepatic stellate cells,[7],significantly reduced caspase-3 activity
O=C(CCCN1CCC2(CC1)C(=O)NCN2c1ccccc1)c1ccc(F)cc1 [Spiperone],maximal nuclear condensation,[8]; 24 hours at 100 μM (Spiperone),80%
same,specific caspase 3 activity,[9]; 100 μM for 24 hours (Spiperone),6.5 μmol pNA liberated/hour/μg protein
same,specific caspase 3 activity in the presence of serotonin,[9]; Spiperone 100 μM for 24 hours with serotonin (100 M [sic]),4 μmol pNA liberated/hr/μg protein
CSc1ccc2c(c1)C(N1CCN(C)CC1)Cc1ccccc1S2.O=C(O)/C=C\C(=O)O (stereo not shown) [Methiothepin maleate],maximal nuclear condensation,[8]; 3 hours at 10-100 μM (Methiothepin maleate),100%
same,specific caspase 3 activity,[9]; 10 μM for 3 hours (Methiothepin maleate),0.9 μmol pNA liberated/hour/μg protein
same,effect of serotonin on the specific caspase 3 activity,[9],not significantly reduced by the presence of serotonin
"CC(O)C(C)OC(=O)[C@@H]1C[C@@H]2c3cccc4c3c(cn4C(C)C)C[C@H]2N(C)C1 (stereo partly shown) [LY 53,857]",maximal nuclear condensation,"[8]; 24 hours at 100 μM (LY 53,857)",~100%
same,specific caspase 3 activity,"[9]; 100 μM for 24 hours (LY 53,857)",1 μmol pNA liberated/hour/μg protein
same,effect of serotonin on the specific caspase 3 activity,[9],not significantly reduced by the presence of serotonin
